Results reported in patent publication US12617770B2, “IRAK inhibitor and preparation method therefor and use thereof” (WUHAN CREATERNA SCIENCE AND TECHNOLOGY CO., LTD., priority 2019, dated 2026).

Target: T1, CYP3A4 (Homo sapiens, UniProt P08684)
T1 construct: The test compounds were co-incubated with the human liver microsomes and a probe substrate midazolam (CYP3A4); tissue Corning (USA); host or cells: mixed (pooled) human liver microsomes
Experiment: Time-dependent inhibition (TDI) of CYP3A4 in human liver microsomes
Format: in vitro ADME
Conditions: probe substrate midazolam
Experimental: This study was intended to investigate the time-dependent inhibition effect of the compounds on CYP3A4 in human P450 superfamily. The mixed human liver microsomes used in this assay were purchased from Corning (USA).
The test compounds were co-incubated with the human liver microsomes and a probe substrate midazolam (CYP3A4), and the concentration of the test compounds was set at 30 μM. The reaction was initiated by adding coenzyme NADPH, and terminated by adding acetonitrile dossolved with internal standard in advance. After the proteins were precipitated, the supernatant was centrifuged. The characteristic metabolite 1-hydroxy-midazolam (CYP3A4) in the supernatant was analyzed by LC-MS/MS. The influence of the test compounds on production of the characteristic metabolites was finally analyzed on the basis of the data obtained. A selective inhibitor (verapamil for CYP3A4-M) was used as positive control.

T1 sequence (P08684 whole entry): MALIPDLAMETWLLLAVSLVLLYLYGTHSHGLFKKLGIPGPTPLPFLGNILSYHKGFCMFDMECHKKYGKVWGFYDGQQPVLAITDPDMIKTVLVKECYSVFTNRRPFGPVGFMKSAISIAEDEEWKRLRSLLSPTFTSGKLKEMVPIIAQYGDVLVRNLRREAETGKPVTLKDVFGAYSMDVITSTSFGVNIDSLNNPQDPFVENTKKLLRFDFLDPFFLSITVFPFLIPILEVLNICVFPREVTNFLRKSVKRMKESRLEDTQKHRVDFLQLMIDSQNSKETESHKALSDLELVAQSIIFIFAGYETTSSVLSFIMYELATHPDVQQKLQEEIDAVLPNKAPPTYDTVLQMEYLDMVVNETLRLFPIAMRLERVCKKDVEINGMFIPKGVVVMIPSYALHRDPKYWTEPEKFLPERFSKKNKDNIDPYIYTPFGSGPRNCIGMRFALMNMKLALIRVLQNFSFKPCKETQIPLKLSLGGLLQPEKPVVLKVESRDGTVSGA

- TDI (3A4, 30 μM): −3.68%
SMILES: COc1cc2nn([C@H]3CC[C@](C)(O)CC3)cc2cc1NC(=O)c1cccc(C)[n+]1[O-] [Compound 001, 2-((2-((1r,4r)-4-hydroxy-4-methylcyclohexyl)-6-methoxy-2H-indazol-5-yl)carbamoyl)-6-methylpyridine 1-oxide]
